In ChEMBL document CHEMBL1131900, “4-Hydroxy-1-[3-(5-(1,2,4-triazol-4-yl)-1H-indol-3-yl)propyl]piperidines: selective h5-HT1D agonists for the treatment of migraine” (Bioorg Med Chem Lett, 1999):

What was measured:
[1] = target: 5-hydroxytryptamine receptor 1B (Homo sapiens, UniProt P28222); assay: Ability to displace [3H]5-HT from recombinant human 5-hydroxytryptamine 1B receptor stably expressed in CHO cells determined in vitro; type: cell-based
[2] = target: T1, 5-hydroxytryptamine receptor 1D (Homo sapiens, UniProt P28221); assay: Maximum stimulation of [35S]GTP gamma-S binding expressed relative to the maximal effect produced by 5-hydroxytryptamine 1D receptor; type: functional
T1 sequence (P28221 whole entry): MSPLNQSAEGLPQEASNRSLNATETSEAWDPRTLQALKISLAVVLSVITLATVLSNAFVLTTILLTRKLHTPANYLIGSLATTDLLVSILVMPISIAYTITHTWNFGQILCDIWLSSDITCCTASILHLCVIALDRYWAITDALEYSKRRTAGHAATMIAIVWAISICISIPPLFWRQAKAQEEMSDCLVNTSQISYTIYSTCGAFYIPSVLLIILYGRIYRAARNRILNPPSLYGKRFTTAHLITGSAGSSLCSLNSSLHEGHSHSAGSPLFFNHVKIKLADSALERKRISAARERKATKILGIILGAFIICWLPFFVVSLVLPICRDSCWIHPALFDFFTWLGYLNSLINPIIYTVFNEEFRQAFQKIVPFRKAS

[3] = target: T1, 5-hydroxytryptamine receptor 1D; assay: Ability to displace [3H]-5-HT from recombinant human 5-hydroxytryptamine 1D receptor stably expressed in CHO cells determined in vitro; type: cell-based
[4] = target: T1, 5-hydroxytryptamine receptor 1D; assay: Measurement of agonist-induced [35S]-GTP gamma-S binding in CHO cells stably transfected with 5-hydroxytryptamine 1D receptor; type: functional, cell-based
[5] = target: Serotonin 1 receptors; 5-HT1B & 5-HT1D (Homo sapiens) (UniProt P28222+P28221); assay: Binding selectivity for h5-HT1D receptor to that of h5-HT1B receptor; type: protein assay

Chain of 5-hydroxytryptamine receptor 1B (P28222 whole entry): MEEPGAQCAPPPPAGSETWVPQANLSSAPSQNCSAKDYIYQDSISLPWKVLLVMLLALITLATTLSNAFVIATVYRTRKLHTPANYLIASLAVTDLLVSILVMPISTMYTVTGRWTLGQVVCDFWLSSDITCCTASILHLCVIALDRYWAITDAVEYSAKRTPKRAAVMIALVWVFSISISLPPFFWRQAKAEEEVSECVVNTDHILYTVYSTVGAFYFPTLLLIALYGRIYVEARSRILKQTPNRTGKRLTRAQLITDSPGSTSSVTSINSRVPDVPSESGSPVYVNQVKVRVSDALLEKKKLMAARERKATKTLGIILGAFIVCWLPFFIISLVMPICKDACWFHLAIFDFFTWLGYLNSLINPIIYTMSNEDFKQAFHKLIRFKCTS

`CC(=O)Nc1ccc(CNCC2(O)CCN(CCCc3c[nH]c4ccc(-n5cnnc5)cc34)CC2)cc1` showed an IC50 [1] of 30 nM, an Activity [2] of 102% and an IC50 [3] of 11 nM. It also gave an ED50 [4] of 14 nM and a Ratio [5] of 3.
In the case of `Cc1ccccc1CN(C)CC1(O)CCN(CCCc2c[nH]c3ccc(-n4cnnc4)cc23)CC1`, the IC50 [1] is reported as 89 nM, the Activity [2] is reported as 90% and the IC50 [3] is reported as 1.3 nM. It also gave an ED50 [4] of 3.7 nM and a Ratio [5] of 68.
For `OC1(CNCc2ccccc2)CCN(CCCc2c[nH]c3ccc(-n4cnnc4)cc23)CC1`, the IC50 [1] was 47 nM, the Activity [2] was 79% and the IC50 [3] was 0.45 nM. For the same compound, the ED50 [4] was 2.2 nM and the Ratio [5] was 106.
`CN(CC1CCCCC1)CC1(O)CCN(CCCc2c[nH]c3ccc(-n4cnnc4)cc23)CC1` gave an IC50 [1] of 27 nM, an Activity [2] of 69% and an IC50 [3] of 1.2 nM. For the same compound, the ED50 [4] was 1.4 nM and the Ratio [5] was 22.
`CN(Cc1ccccc1)CC1(O)CCN(CCCc2c[nH]c3ccc(-n4cnnc4)cc23)CC1` gave an IC50 [1] of 96 nM, an Activity [2] of 91% and an IC50 [3] of 1.2 nM. For the same compound, the ED50 [4] was 3.8 nM and the Ratio [5] was 80.
For `CC(C)(C)CNCC1(O)CCN(CCCc2c[nH]c3ccc(-n4cnnc4)cc23)CC1`, the IC50 [1] was 85 nM, the IC50 [3] was 7.3 nM and the Ratio [5] was 12.
`Cc1ccccc1CNCC1(O)CCN(CCCc2c[nH]c3ccc(-n4cnnc4)cc23)CC1` gave an IC50 [1] of 83 nM, an IC50 [3] of 4 nM and a Ratio [5] of 21.
With `OC1(CNCC2CC2)CCN(CCCc2c[nH]c3ccc(-n4cnnc4)cc23)CC1` the IC50 [1] was 57 nM, the IC50 [3] was 4.5 nM and the Ratio [5] was 13.
In the case of `CN(CC1CC1)CC1(O)CCN(CCCc2c[nH]c3ccc(-n4cnnc4)cc23)CC1`, the IC50 [1] is reported as 27 nM, the Activity [2] is reported as 79% and the IC50 [3] is reported as 1.35 nM. It also gave an ED50 [4] of 1.1 nM and a Ratio [5] of 20.
With `CC(C)(C)OC(=O)NCC1(O)CCN(CCCc2c[nH]c3ccc(-n4cnnc4)cc23)CC1` the IC50 [1] was 340 nM, the Activity [2] was 86% and the IC50 [3] was 21 nM. For the same compound, the ED50 [4] was 9.7 nM and the Ratio [5] was 16.
`CN(CC(C)(C)C)CC1(O)CCN(CCCc2c[nH]c3ccc(-n4cnnc4)cc23)CC1` gave an IC50 [1] of 61 nM, an Activity [2] of 60% and an IC50 [3] of 1.8 nM. It also gave an ED50 [4] of 1.6 nM and a Ratio [5] of 34.
Compound `OC1(Cc2ccccc2)CCN(CCCc2c[nH]c3ccc(-n4cnnc4)cc23)CC1` has an IC50 [1] of 32 nM, an Activity [2] of 64% and an IC50 [3] of 0.1 nM. The ED50 [4] was 0.25 nM and the Ratio [5] was 251.
`CC(C)CN(C)CC1(O)CCN(CCCc2c[nH]c3ccc(-n4cnnc4)cc23)CC1` was tested, and the IC50 [1] was 30 nM, the Activity [2] was 95% and the IC50 [3] was 0.65 nM. For the same compound, the ED50 [4] was 1.7 nM and the Ratio [5] was 47.
Work on `CC1(C)CCCN(CC2(O)CCN(CCCc3c[nH]c4ccc(-n5cnnc5)cc34)CC2)C1` yielded an IC50 [1] of 19 nM, an Activity [2] of 67% and an IC50 [3] of 0.65 nM. For the same compound, the ED50 [4] was 0.9 nM and the Ratio [5] was 29.
For `OC1(CNCc2ccccn2)CCN(CCCc2c[nH]c3ccc(-n4cnnc4)cc23)CC1`, the IC50 [1] was 55 nM, the Activity [2] was 96% and the IC50 [3] was 3.2 nM. The ED50 [4] was 3.2 nM and the Ratio [5] was 17.
